Measured values as given in patent publication US8178132B2, “Magnesium-containing food compositions” (Magceutics, Inc., priority 2007, dated 2012).

How the values were obtained:
[1] = system: rats
Experimental: Twenty 2-month old, male Sprague Dawley (SD) rats were housed in a temperature-controlled room (22° C. to 25° C.) with a dark period from 08:00 pm to 08:00 am daily. […] Over 7 days before the training and trial period began, each rat was handled and habituated to the maze and to Kellogg's Froot Loop cereal.
Each rat underwent a test of one trial, followed by an interval of 10-minutes, followed by another trial, and so on, for a total of 6 trials in one day. In each trial, each rat went through a sample run in the maze, followed by an interval of 15 seconds, followed by a choice run in the maze. In the sample run, the subject rat was forced to go to the left or to the right by the presence of a block, according to a pseudorandom sequence (with an equal number of left turns and right turns, and no more than two consecutive turns in the same direction). As a reward, Froot Loop cereal was available in the food well at the end of the run, regardless of the direction that was taken by virtue of the block. In the choice run, the block that had been present in the preceding sample run was removed, and the rat was allowed to choose to go to the left or to the right. As a reward, Froot Loop cereal was available in the food well at the end of the run, only when the rat had made a “correct choice” by choosing the direction opposite that taken in the preceding sample run. […]
On the first day (designated day 0) of the feeding of the two groups, as just described, each rat underwent a preliminary test of one trial, followed by an interval of 10 minutes, followed by another trial, and so on, for a total of 4 trials in one day. […] In this preliminary test, the choice accuracy level, or ratio of correct choices made, co, to the number of number of trials in the test, no, was determined for each rat. […]
Three groups of animals (young, aging, and magnesium-treated aging rats) were used. […] Spatial working memory was assessed using a T-maze non-matching-to-place task. […] Spatial working memory was first assessed on an elevated T-maze. […]

[2] = system: rats; assay: Novel object recognition test in rats; assay type: in vivo, Sprague-Dawley rats
Experimental: In this example, the effect of magnesium supplementation on recognition memory was tested. Three groups of rats were used in these experiments: 1) young rats (three months old); aging rats (12-14 months old), and; 3) magnesium-treated aging rats (12-14 months old, diet supplemented with 6 mg/kg MgCl2 from 8 months of age). We used experimentally naive, female, Sprague-Dawley young […], aging (12-14 month old) and […] rats (Charles River) at the beginning of the behavior experiments. They were housed two per cage with continuous access to food and water under a 12:12 light-dark cycle, with light onset at 8:00 a.m. […] All experiments involving animals were approved by the Massachusetts Institute of Technology's and Tsinghua University Committees on Animal Care.
The three groups of rats were tested for recognition memory using an object recognition test with a single exposure to the object during training. The task is based on the natural tendency of rodents to explore new objects and tests the animals' memory capacity for distinguishing novel versus familiar objects.
Briefly, the rats were first individually habituated to the personnel and then to open-field arena during 2 weeks. […] The retention intervals were 10 min and 24 hours. Objects were cleaned thoroughly between trials with 20% ethanol solution to ensure the absence of olfactory cues. The particular objects for a given trial were randomly determined, but each object was used for only one trial per rat. Memory of the familiar object is associated with increased exploration of the new object and an exploration index (% correct) is calculated as new object inspection time/30.
In this example, the effect of magnesium supplementation on memory consolidation was studied. […]
Briefly, the rats were first individually habituated to the personnel and then to open-field arena during 2 weeks. […] The particular objects for a given trial were randomly determined, but each object was used for only one trial per rat. […]

[3] = system: rats; details: 2% in food for 8 days, cited from earlier work
[4] = system: mice genetically altered to present symptoms of Alzheimer's disease (AD); assay: Modified Morris water maze test in AD mice; assay type: in vivo; details: AD mice aged 13 months, compared with aricept
Experimental: Another group, the control group, of 10 mice that were genetically altered to present symptoms of AD were fed a Control Diet, a diet of normal solid food and water, for 30 days.
The pool used was a pool of water in a circular metal tank (150 cm in diameter and 50 cm in depth) having a water height of 30 cm and a water temperature that was maintained at ˜22° C. The pool was placed in a moderately lit area and surrounded by a black curtain. An acrylic platform (15 cm in diameter) was placed 2 cm below the surface of the water in the middle of one quadrant of the pool, equidistant from the center and the edge of the pool. Outside the pool, a cue was placed so as to be visible to a mouse in the maze, allowing a mouse to use it as a landmark for spatial orientation. The cue remained unchanged throughout the test period.
On the first day of the training and testing period, the water in the pool was transparent, such that the platform was visible. Each mouse was trained to swim towards the platform and to stand on the platform so as not to be submerged in the pool. […] The amount of time the mouse took to find the platform, referred to as “escape latency,” was recorded for each trial.
On the second day of the training and testing period, a small quantity of milk was added to the water in the pool, such that the pool was opaque and the platform was no longer visible. […]

With `[Cl-].[Cl-].[Mg+2]` [MgCl2, magnesium chloride] the “asymptotic choice accuracy level” value ([1]; after 8 days of training, 15 s delay) was roughly 94%, the “spatial working memory at increased delay” value ([1]; aging rats, MgCl2 diet, 2 and 5 min delays) was “significantly enhanced the performance of the aging rats at 2 and 5 min delays” and the “learning in non-matching-to-place task” value ([1]; aging rats, MgCl2 diet, 15 sec delay) was “performed significantly better from their first trials”. The “novel object exploration preference, 10 minute retention interval” value ([2]; aging rats 12-14 months, 6 mg/kg MgCl2 from 8 months of age, single training) was “preferentially explored the novel object to the same extent as young rats”, the “novel versus familiar object discrimination, 24 hours retention” value ([2]; aging rats, 6 mg/kg MgCl2, single training) was “lose there ability to distinguish novel versus familiar objects” and the “preference for the novel object, 24-hour retention after spaced training” value ([2]; aging rats, two training sessions separated by 10 minutes) was “retained a high level of preference”.
For `[O]=[Mg]` [magnesium oxide], the side-effect [3] is given as “diarrhea and weight loss” and the cognitive function ([3]; young (9-month) and aged (25-month) rats) is given as “some sign of improvement of cognitive function”.
With `CC12CC3CC(C)(C1)CC(N)(C3)C2` [memantine] the “reduction of the effects of AD on learning capacity, comparison of anti-AD drugs” value [4] was “better at reducing the effects of AD on learning capacity than aricept”.
